This note sets out measurements from patent US20240391870A1 (Arcturus Therapeutics, Inc., priority 2023, published 2024).

In data set [1] the test system is factor VII. Description: Factor VII knock down evaluation (LNP with FVII siRNA). The data set is classed as in vivo, Balb/C mice. The settings on record: plasma FVII after 48 h vs saline control; for FVII KD % 0.01 mpk: 0.01 mpk i.v.; for FVII KD % 0.03 mpk: 0.03 mpk i.v. Here is the method: Lipid formulations comprising a FVII siRNA further described below were evaluated for their knockdown activity using the protocol of this example. In the FVII evaluation, seven to eight week-old, female Balb/C mice were purchased from Charles River Laboratories (Hollister, CA). The mice were held in a pathogen-free environment and all procedures involving the mice were performed in accordance with guidelines established by the Institutional Animal Care and Use Committee (IACUC). Lipid nanoparticles containing factor VII siRNA were administered intravenously at a dosing volume of 10 mL/kg and two dose levels (0.03 and 0.01 mg/kg). After 48 h, the mice were anesthetized with isoflurane and blood was collected retro-orbitally into Microtainer® tubes coated with 0.109 M sodium citrate buffer (BD Biosciences, San Diego, CA) and processed to plasma. Plasma specimens were tested for factor VII levels immediately or stored at −80° C. for later analysis. Measurement of FVII protein in plasma was determined using the colorimetric Biophen VII assay kit (Aniara Diagnostica, USA). Absorbance was measured at 405 nm and a calibration curve was generated using the serially diluted control plasma to determine levels of factor VII in plasma from treated animals, relative to the saline-treated control animals.

A short description of data set [2]: Mouse plasma stability. The data set is classed as in vitro ADME, CD-1 mouse. The conditions noted are these: 1 uM lipid. Here is the method: Lipid stock solution was prepared by dissolution of the lipid in isopropanol at the concentration of 5 mg/mL. A requisite volume of the lipid-isopropanol solution was then diluted to 100 μM concentration at a total volume of 1.0 mL with in 50:50 (v/v) ethanol/water. Ten microliters of this 100 μM solution was spiked into 1.0 mL of mouse plasma (BioIVT, Cat. No.: MSE00PLNHUNN, CD-1 mouse, anticoagulant: sodium heparin, not filtered) that was pre-warmed to 37° C. and was stirred at 50 rpm with a magnetic stir bar. The starting concentration of lipids in plasma was thus 1 μM. At time points 0, 15, 30, 45, 60 and 120 min, 0.1 mL of the plasma was withdrawn from the reaction mixture and the protein was precipitated by adding 0.9 mL of ice-cold 4:1 (v/v) acetonitrile/methanol with 1 μg/mL of a selected internal standard lipid added. After filtration through a 0.45 micron 96-well filtering plate, the filtrates were analyzed by LC-MS (Thermo Fisher's Vanquish UHPLC—LTQ XL linear ion trap Mass Spectrometer); Waters XBridge BEH Shield RP18 2.5 micron (2.1×100 mm) column with its matching guard column. Mobile phase A was 0.1% formic acid in water, and mobile phase B was 0.1% formic acid in 1:1 (v/v) acetonitrile/methanol. Flow rate was 0.5 ml/min. Elution gradient was: Time 0-1 min: 10% B; 1-6 min: 10%-95% B; 6-8.5 min: 95% B; 8.5-9 min: 95%-10% B; 9-10 min: 10% B. Mass spectrometry was in positive scanning mode from 600-1100 m/z. The peak of the molecular ion of the lipids was integrated in the extracted ion chromatography (XIC) using Xcalibur software (Thermo Fisher). The relative peak area compared to T=0, after normalization by the peak area of the internal standard, was used as the percentage of the lipid remaining at each time point. T1/2 values were calculated using the first-order decay model.

Data set [3] is described as follows: In vivo biodegradability assay (lipid in liver). The settings on record: mouse liver, 48 h.
Description: In vivo biodegradability assay was performed to assess the biodegradability of lipids in the LNP. Briefly, mice were injected with either 0.1 or 0.03 mg/Kg dose and after 24 or 48 hours mice livers were collected. To measure the concentration of lipids in the mouse liver, liver samples were homogenized in appropriate buffer in 1-10 dilution and mixed with the same amount of stabilized plasma. The samples were then mixed with organic solvents spiked with internal standard to precipitate proteins. After centrifugation, supernatant was diluted further with organic solvent before sample analysis by LC-MS. In LC-MS analysis, positive electrospray ionization was used, and multiple reaction monitoring (MRM) parameters were set up to specifically target the lipid analyte and internal standard. Calibration standards were prepared in stabilized plasma and mixed with same amount of homogenization buffer before protein precipitation. Quality control samples with known amounts of lipid was prepared in blank liver homogenate to monitor the precision and accuracy of the assay.
Data set [4] is described as follows: Measured pKa in the indicated formulation. The settings on record: for pKa: EPO / pKa: FVII: Table 2; for pKa: EPO: measured in EPO formulation; for pKa: FVII: measured in FVII formulation.
Description: Measured pKa values were determined based on the pH measured in the indicated formulation (i.e., EPO or FVII formulation).
In data set [5] the test system is hEPO. Kind of data set: hEPO mRNA expression evaluation (hEPO-LNPs). Format: in vivo, Balb/c mice. The settings on record: serum hEPO after 6 hr; for EPO exprssn (ng/mL) 0.03 mpk: 0.03 mpk i.v.; for EPO exprssn (ng/mL) 0.1 mpk: 0.1 mpk i.v. Here is the method: Protocol for hEPO mRNA Expression Evaluation
Lipid formulations comprising a hEPO mRNA below were evaluated for their ability to express hEPO in vivo according to the protocol of this example. All animal experiments were conducted using institutionally-approved protocols (IACUC). In this protocol, female Balb/c mice at least 6-8 weeks of age were purchased from Charles River Laboratory. […] After 6 hr, blood was collected with serum separation tubes, and the serum was isolated by centrifugation. Serum hEPO levels were then measured using an ELISA assay (Human Erythropoietin Quantikine IVD ELISA Kit, R&D Systems, Minneapolis, MD).

Structures are written as SMILES. Where only a bound is given, the exact number is not on record here.

As to `CN(C)CCCSC(=O)N(CCCC(=O)OC(COC(=O)CCC1CCCCC1)COC(=O)CCC1CCCCC1)CCCC(=O)OC(COC(=O)CCC1CCCCC1)COC(=O)CCC1CCCCC1` [LIPID 10, ((4,4′-((((3-(Dimethylamino)propyl)thio)carbonyl)azanediyl)bis(butanoyl))bis(oxy))bis(propane-2,1,3-triyl)tetrakis(3-cyclohexylpropanoate)], the “FVII KD % 0.01 mpk” value in data set [1] (Table 1) and in data set [1] (Table 2) was 92% in each case. Further, the “FVII KD % 0.03 mpk” value in data set [1] (Table 1) and in data set [1] (Table 2) was 83% in each case. The “Percent remaining in mouse plasma after 2 h” value (shortened to “Percent remaining”) in data set [2] (Table 1, mouse plasma 37 C) came out at 36%; in data set [2] (Table 2, mouse plasma 37 C) it was 36%. Further, the “In vivo degradability (ng/tissue) at 48h 0.03 mpk” value in data set [3] (Table 1) and in data set [3] (Table 2) was “BLOQ” in each case. For the same compound, the “In vivo degradability (ng/tissue) at 48h 0.1 mpk” value in data set [3] (Table 1) and in data set [3] (Table 2) was “BLOQ” throughout. Further, the pKa in data set [4] (EPO formulation) was determined as 6.46; in data set [4] (FVII formulation), 6.67. For the same compound, the “pKa: EPO” value in data set [4] came out at 6.46. Moreover, the “pKa: FVII” value in data set [4] is 6.67. For the same compound, the “EPO exprssn (ng/mL) 0.03 mpk” value in data set [5] (Table 1) and in data set [5] (Table 2) was 387 ng/mL in each case. Also, the “EPO exprssn (ng/mL) 0.1 mpk” value in data set [5] (Table 1) and in data set [5] (Table 2) was 1179 ng/mL each time.
For the compound `CN(C)CCCSC(=O)N(CCCC(=O)OC(COC(=O)CCCC1CCCCC1)COC(=O)CCCC1CCCCC1)CCCC(=O)OC(COC(=O)CCCC1CCCCC1)COC(=O)CCCC1CCCCC1` [LIPID 11, ((4,4′-((((3-(Dimethylamino)propyl)thio)carbonyl)azanediyl)bis(butanoyl))bis(oxy))bis(propane-2,1,3-triyl)tetrakis(4-cyclohexylbutanoate)], the “FVII KD % 0.01 mpk” value in data set [1] (Table 1) and in data set [1] (Table 2) was 84% each time. Further, the “FVII KD % 0.03 mpk” value in data set [1] (Table 1) and in data set [1] (Table 2) was 22% in each case. For the same compound, the “Percent remaining” value is 40% in data set [2] (Table 1, mouse plasma 37 C) and 40% in data set [2] (Table 2, mouse plasma 37 C). Besides, the “In vivo degradability (ng/tissue) at 48h 0.03 mpk” value in data set [3] (Table 1) and in data set [3] (Table 2) was “BLOQ” throughout. The “In vivo degradability (ng/tissue) at 48h 0.1 mpk” value in data set [3] (Table 1) and in data set [3] (Table 2) was “BLOQ” in each case. Besides, the pKa in data set [4] (EPO formulation) worked out at 6.6; in data set [4] (FVII formulation) it was 6.68. For the same compound, the “pKa: EPO” value in data set [4] amounted to 6.6. Further, the “pKa: FVII” value in data set [4] is on record as 6.68. The “EPO exprssn (ng/mL) 0.03 mpk” value in data set [5] (Table 1) and in data set [5] (Table 2) was 169 ng/mL throughout. Further, the “EPO exprssn (ng/mL) 0.1 mpk” value in data set [5] (Table 1) and in data set [5] (Table 2) was 548 ng/mL in each case.
Turning to `CN(C)CCCSC(=O)N(CCCCCC(=O)OC(COC(=O)CCC1CCCCC1)COC(=O)CCC1CCCCC1)CCCCCC(=O)OC(COC(=O)CCC1CCCCC1)COC(=O)CCC1CCCCC1` [LIPID 12, ((6,6′-((((3-(Dimethylamino)propyl)thio)carbonyl)azanediyl)bis(hexanoyl))bis(oxy))bis(propane-2,1,3-triyl)tetrakis(3-cyclohexylpropanoate)], the “FVII KD % 0.01 mpk” value in data set [1] (Table 1) and in data set [1] (Table 2) was 91% in each case. In addition, the “FVII KD % 0.03 mpk” value in data set [1] (Table 1) and in data set [1] (Table 2) was 69% each time. For the same compound, the “Percent remaining” value in data set [2] (Table 1, mouse plasma 37 C) amounted to 57%; in data set [2] (Table 2, mouse plasma 37 C) it was 57%. The “In vivo degradability (ng/tissue) at 48h 0.03 mpk” value in data set [3] (Table 1) and in data set [3] (Table 2) was “BLOQ” each time. Also, the “In vivo degradability (ng/tissue) at 48h 0.1 mpk” value in data set [3] (Table 1) and in data set [3] (Table 2) was “BLOQ” throughout. Besides, the values for the pKa in data set [4] (EPO formulation) and in data set [4] (FVII formulation) were 6.46 and 6.61, respectively. The “pKa: EPO” value in data set [4] turned out to be 6.46. Also, in data set [4], the “pKa: FVII” value came out at 6.61. Besides, the “EPO exprssn (ng/mL) 0.03 mpk” value in data set [5] (Table 1) and in data set [5] (Table 2) was 286 ng/mL in each case. Moreover, the “EPO exprssn (ng/mL) 0.1 mpk” value in data set [5] (Table 1) and in data set [5] (Table 2) was 768 ng/mL each time.
`CCCCCCCCC(=O)OCC(COC(=O)CCCCCCCC)OC(=O)CCN(CCC(=O)OC(COC(=O)CCCCCCCC)COC(=O)CCCCCCCC)C(=O)SCCCN(C)C` [LIPID 13]: the “FVII KD % 0.01 mpk” value in data set [1] (Table 1) and in data set [1] (Table 2) was 60% throughout. Besides, the “FVII KD % 0.03 mpk” value in data set [1] (Table 1) and in data set [1] (Table 2) was 87% in each case. For the same compound, the “Percent remaining” value was 74% in data set [2] (Table 1, mouse plasma 37 C) and 74% in data set [2] (Table 2, mouse plasma 37 C). The “In vivo degradability (ng/tissue) at 48h 0.03 mpk” value in data set [3] (Table 1) and in data set [3] (Table 2) was less than 340 ng/tissue each time. In addition, the “In vivo degradability (ng/tissue) at 48h 0.1 mpk” value in data set [3] (Table 1) and in data set [3] (Table 2) was less than 340 ng/tissue in each case. For the same compound, the values for the pKa in data set [4] (EPO formulation) and in data set [4] (FVII formulation) were 6.4 and 6.61, respectively. The “pKa: EPO” value in data set [4] is listed as 6.40. Moreover, the “pKa: FVII” value in data set [4] worked out at 6.61. The “EPO exprssn (ng/mL) 0.1 mpk” value in data set [5] (Table 2) amounted to 1488.1 ng/mL.
For the compound `CCCCCCCCC(=O)OCC(COC(=O)CCCCCCCC)COC(=O)CCN(CCC(=O)OCC(COC(=O)CCCCCCCC)COC(=O)CCCCCCCC)C(=O)SCCCN(C)C` [LIPID 14], the “FVII KD % 0.01 mpk” value in data set [1] (Table 1) and in data set [1] (Table 2) was 65% in each case. Also, the “FVII KD % 0.03 mpk” value in data set [1] (Table 1) and in data set [1] (Table 2) was 90% in each case. Also, the “Percent remaining” value in data set [2] (Table 1, mouse plasma 37 C) came out at 116%; in data set [2] (Table 2, mouse plasma 37 C), 100%. Further, the “In vivo degradability (ng/tissue) at 48h 0.03 mpk” value in data set [3] (Table 1) and in data set [3] (Table 2) was less than 340 ng/tissue in each case. Also, the “In vivo degradability (ng/tissue) at 48h 0.1 mpk” value in data set [3] (Table 1) and in data set [3] (Table 2) was less than 340 ng/tissue in each case. In addition, the pKa turned out to be 7.19 in data set [4] (EPO formulation) and 6.86 in data set [4] (FVII formulation). In data set [4], the “pKa: EPO” value was 7.19. In addition, in data set [4], the “pKa: FVII” value turned out to be 6.86. For the same compound, the “EPO exprssn (ng/mL) 0.1 mpk” value in data set [5] (Table 2) amounted to 1152 ng/mL.

As usually defined, the pKa is the pH at which an ionisable group is half protonated. Low values mean a group that gives up its proton readily, high ones a group that holds its proton tightly.
